Test results as given in PubChem BioAssay (NCI).
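1) Cells in 96-well plates. 2) Compound, 48 h, 5 concentrations. 3) Linear interpolation between surrounding doses. 4) Unreached endpoint = highest concentration. TGI is the concentration that stops growth completely.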

Key:
Test in all cases: NCI-60 cell line screen, 48 h
786-0 renal = tested on: 786-0 renal
A498 renal = tested on: A498 renal
A549 NSCLC = tested on: A549 NSCLC
ACHN renal = tested on: ACHN renal
BT-549 breast = tested on: BT-549 breast
CAKI-1 renal = tested on: CAKI-1 renal
CCRF-CEM leukemia = tested on: CCRF-CEM leukemia
COLO 205 colon = tested on: COLO 205 colon
DU-145 prostate = tested on: DU-145 prostate
EKVX NSCLC = tested on: EKVX NSCLC
HCT-116 colon = tested on: HCT-116 colon
HCT-15 colon = tested on: HCT-15 colon
HOP-62 NSCLC = tested on: HOP-62 NSCLC
HOP-92 NSCLC = tested on: HOP-92 NSCLC
HT29 colon = tested on: HT29 colon
IGROV1 ovarian = tested on: IGROV1 ovarian
KM12 colon = tested on: KM12 colon
LOX IMVI melanoma = tested on: LOX IMVI melanoma
M14 melanoma = tested on: M14 melanoma
MALME-3M melanoma = tested on: MALME-3M melanoma
MDA-MB-231 breast = tested on: MDA-MB-231 breast
MDA-MB-435 = tested on: MDA-MB-435
MDA-N = tested on: MDA-N
MOLT-4 leukemia = tested on: MOLT-4 leukemia
NCI-H226 lung = tested on: NCI-H226 lung
NCI-H23 lung = tested on: NCI-H23 lung
NCI-H460 lung = tested on: NCI-H460 lung
NCI-H522 lung = tested on: NCI-H522 lung
NCI/ADR-RES ovarian = tested on: NCI/ADR-RES ovarian
OVCAR-3 ovarian = tested on: OVCAR-3 ovarian
OVCAR-4 ovarian = tested on: OVCAR-4 ovarian
OVCAR-5 ovarian = tested on: OVCAR-5 ovarian
OVCAR-8 ovarian = tested on: OVCAR-8 ovarian
RPMI-8226 leukemia = tested on: RPMI-8226 leukemia
RXF 393 renal = tested on: RXF 393 renal
SF-268 CNS = tested on: SF-268 CNS
SF-295 CNS = tested on: SF-295 CNS
SF-539 CNS = tested on: SF-539 CNS
SK-MEL-28 melanoma = tested on: SK-MEL-28 melanoma
SK-MEL-5 melanoma = tested on: SK-MEL-5 melanoma
SK-OV-3 ovarian = tested on: SK-OV-3 ovarian
SN12C renal = tested on: SN12C renal
SNB-19 CNS = tested on: SNB-19 CNS
SNB-75 CNS = tested on: SNB-75 CNS
SW-620 colon = tested on: SW-620 colon
T-47D breast = tested on: T-47D breast
TK-10 renal = tested on: TK-10 renal
U251 CNS = tested on: U251 CNS
UACC-257 melanoma = tested on: UACC-257 melanoma
UO-31 renal = tested on: UO-31 renal

Q: Which TGI (786-0 renal) does the source give for `N#CC(c1nc2ccccc2s1)c1ncnc(Cl)c1[N+](=O)[O-]` (stereo not given) here?
A: 42.7 µM

Q: And the TGI (A498 renal)?
A: > 100 µM

Q: What about the TGI (A549 NSCLC) of the same molecule?
A: > 100 µM

Q: And the TGI (ACHN renal)?
A: > 100 µM

Q: What about the TGI (BT-549 breast) of the same molecule?
A: 56.3 µM

Q: And the TGI (CAKI-1 renal)?
A: > 100 µM

Q: What about the TGI (CCRF-CEM leukemia) of the same molecule?
A: > 100 µM

Q: And the TGI (COLO 205 colon)?
A: 29.8 µM

Q: What about the TGI (DU-145 prostate) of the same molecule?
A: > 100 µM

Q: What about the TGI (EKVX NSCLC) of the same molecule?
A: 76.5 µM

Q: What about the TGI (HCT-116 colon) of the same molecule?
A: 26.4 µM

Q: What about the TGI (HCT-15 colon) of the same molecule?
A: 35.8 µM

Q: And the TGI (HOP-62 NSCLC)?
A: 97.2 µM

Q: What about the TGI (HOP-92 NSCLC) of the same molecule?
A: 42.8 µM

Q: What about the TGI (HT29 colon) of the same molecule?
A: 34.8 µM

Q: And the TGI (IGROV1 ovarian)?
A: 30.5 µM

Q: What about the TGI (KM12 colon) of the same molecule?
A: > 100 µM

Q: What about the TGI (LOX IMVI melanoma) of the same molecule?
A: 33.1 µM

Q: What about the TGI (M14 melanoma) of the same molecule?
A: 34.3 µM

Q: And the TGI (MALME-3M melanoma)?
A: 41.8 µM

Q: And the TGI (MDA-MB-231 breast)?
A: 92.1 µM

Q: What about the TGI (MDA-MB-435) of the same molecule?
A: 83.2 µM

Q: What about the TGI (MDA-N) of the same molecule?
A: 37.5 µM

Q: And the TGI (MOLT-4 leukemia)?
A: > 100 µM

Q: What about the TGI (NCI-H226 lung) of the same molecule?
A: 83.3 µM

Q: What about the TGI (NCI-H23 lung) of the same molecule?
A: 32.7 µM

Q: And the TGI (NCI-H460 lung)?
A: 47.1 µM

Q: And the TGI (NCI-H522 lung)?
A: 33.5 µM

Q: What about the TGI (NCI/ADR-RES ovarian) of the same molecule?
A: 44.3 µM

Q: And the TGI (OVCAR-3 ovarian)?
A: 47.8 µM

Q: What about the TGI (OVCAR-4 ovarian) of the same molecule?
A: > 100 µM

Q: And the TGI (OVCAR-5 ovarian)?
A: 91.7 µM

Q: And the TGI (OVCAR-8 ovarian)?
A: 34.7 µM

Q: What about the TGI (RPMI-8226 leukemia) of the same molecule?
A: > 100 µM

Q: And the TGI (RXF 393 renal)?
A: 89 µM

Q: And the TGI (SF-268 CNS)?
A: 32.9 µM

Q: What about the TGI (SF-295 CNS) of the same molecule?
A: > 100 µM

Q: And the TGI (SF-539 CNS)?
A: 61.3 µM

Q: What about the TGI (SK-MEL-28 melanoma) of the same molecule?
A: 38.7 µM

Q: And the TGI (SK-MEL-5 melanoma)?
A: 30 µM

Q: What about the TGI (SK-OV-3 ovarian) of the same molecule?
A: > 100 µM

Q: What about the TGI (SN12C renal) of the same molecule?
A: 41.9 µM

Q: And the TGI (SNB-19 CNS)?
A: > 100 µM

Q: What about the TGI (SNB-75 CNS) of the same molecule?
A: > 100 µM

Q: What about the TGI (SW-620 colon) of the same molecule?
A: 35.5 µM

Q: What about the TGI (T-47D breast) of the same molecule?
A: 86.9 µM

Q: What about the TGI (TK-10 renal) of the same molecule?
A: > 100 µM

Q: What about the TGI (U251 CNS) of the same molecule?
A: 95.7 µM

Q: And the TGI (UACC-257 melanoma)?
A: 41 µM

Q: What about the TGI (UO-31 renal) of the same molecule?
A: 91.3 µM
